# Measurements as given in PubChem BioAssay (NCI).
#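 Compound exposure: 48 hours, 5 concentrations, 96-well plates. GI50 marks 50% less growth. At the TGI there is no net growth.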
# Legend:
# Assay in all cases: NCI anticancer screen, dose series, 48 h
# A498 renal = system: A498 renal
# CCRF-CEM leukemia = system: CCRF-CEM leukemia
# COLO 205 colon = system: COLO 205 colon
# HCC-2998 colon = system: HCC-2998 colon
# HCT-15 colon = system: HCT-15 colon
# HT29 colon = system: HT29 colon
# MDA-MB-231 breast = system: MDA-MB-231 breast
# NCI-H522 lung = system: NCI-H522 lung
# EKVX NSCLC = system: EKVX NSCLC
# U251 CNS = system: U251 CNS
SMILES,GI50 (A498 renal) [µM],TGI (A498 renal) [µM],GI50 (CCRF-CEM leukemia) [µM],TGI (CCRF-CEM leukemia) [µM],GI50 (COLO 205 colon) [µM],TGI (COLO 205 colon) [µM],GI50 (HCC-2998 colon) [µM],TGI (HCC-2998 colon) [µM],GI50 (HCT-15 colon) [µM],TGI (HCT-15 colon) [µM],GI50 (HT29 colon) [µM],TGI (HT29 colon) [µM],GI50 (MDA-MB-231 breast) [µM],TGI (MDA-MB-231 breast) [µM],GI50 (NCI-H522 lung) [µM],TGI (NCI-H522 lung) [µM],TGI (EKVX NSCLC) [µM],TGI (U251 CNS) [µM],GI50 (U251 CNS) [µM],GI50 (EKVX NSCLC) [µM]
CC(=O)OC1CCC2(C)C(CCC3C2CCC2(C)C(C4=CC(=O)OC4)CCC32)C1 (centres undefined),1.43,3.4,1.45,4.62,12.8,> 100,23.8,> 100,16.2,> 100,13.1,75.6,0.725,2.81,1.53,3.99,,,,
O=C1Cc2ccccc2N1/N=C\c1ccc(O)cc1,,> 100,,> 100,,> 100,,> 100,,> 100,,> 100,,,,,> 100,> 100,,
COc1cc(C2c3cc4c(cc3C3OC(=O)C2C3CO)OCO4)cc(OC)c1OC (centres undefined),< 0.01,0.0605,0.0271,> 100,0.0188,0.0372,0.0297,0.0899,0.0272,> 100,0.012,> 100,0.03,0.0901,< 0.01,0.0351,,> 100,0.0354,
CC1=C(C(=O)Nc2ccccc2C)C(c2ccc(N(C)C)cc2)C(C(=O)Nc2ccccc2C)=C(C)N1,,> 100,,> 100,,> 100,,> 100,,> 100,,> 100,,,,> 100,> 100,> 100,,
CC1(C)CCc2cc3c(cc2O1)OC(C)(C)C1c2c(ccc4c2CCC(C)(C)O4)OC31 (centres undefined),,,,> 100,,> 100,,,,> 100,,> 100,,,,> 100,> 100,> 100,,
C(=C1\CCC/C(=C/c2ccccc2)C1=NNc1ccccc1)/c1ccccc1,,> 100,,> 100,,> 100,,> 100,,> 100,,> 100,,,,> 100,> 100,> 100,,
O=S(=O)(NC(=S)Nc1ccccc1)c1ccc(N2N=C3c4ccccc4CC3C2c2ccc(Cl)cc2)cc1 (centres undefined),,,19.7,57.5,21.6,44.3,,,22.4,54.8,41.6,> 100,87.1,> 100,18.1,38.6,60.5,39.9,19.7,27.4
CC(C)O/C=C1\C(=O)C2(SCCS2)[C@H]2CCCC[C@@H]12,,75,,73.2,,33.4,,> 100,,> 100,,,,,,53.9,,> 100,,
O=C1c2cnccc2Cc2cccc3c2N1c1ccccc1S3,,69.8,,85,,59.2,,41,,> 100,,74.8,,,,32.2,,34,,
CC(=O)Nc1ccc(-c2nnc(SCC(=O)Nc3ccccc3[N+](=O)[O-])o2)cc1,,,,> 100,,> 100,,,,> 100,,> 100,,,,> 100,,> 100,,
CC1SC2=NC3=C(c4ccccc4C3=O)C(c3ccc(Br)cc3)N2C1=O (centres undefined),,> 100,,> 100,,> 100,,> 100,,> 100,,> 100,,,,48.3,> 100,> 100,,
COc1ccc(/C=C/c2nc(N3CCOCC3)c3cc(F)c(F)cc3n2)cc1OC,3.41,> 100,4.7,> 100,3.47,20.7,7.49,> 100,3,> 100,,,6.56,> 100,6.86,> 100,,> 100,5.9,
Cn1cc2ccccc2c1-c1nc(F)nc(Oc2ccc3c(c2)CC[C@@H]2C3CC[C@]3(C)C(O)CCC23)n1 (some centres undefined),,,,36.5,,44.2,,36.4,,33.4,,,,,,26,,28,,
Cc1cc(C)cc(Nc2nccc(-c3c(-c4ccc(F)cc4)ncn3C3CCNCC3)n2)c1,,,1.92,5.97,1.41,3.21,1.28,2.64,1.15,2.85,0.78,2.43,1.5,3.09,1.5,3.45,3.19,3.25,1.65,1.4
CSc1nc2c(nc(N)n2C2OCC(O)C(O)C2O)c(=O)[nH]1 (centres undefined),,> 100,,> 100,,> 100,,> 100,,,,> 100,,,,> 100,> 100,> 100,,
O=C1C2Cc3ccccc3CN2C(=O)N1CN1CCN(CN2C(=O)C3Cc4ccccc4CN3C2=O)CC1 (centres undefined),,> 100,,> 100,,> 100,,> 100,,> 100,,> 100,,,,> 100,> 100,> 100,,
Cc1cn(C2C=CC(=O)C(C)O2)c(=O)[nH]c1=O (centres undefined),,> 100,,32.5,,32,,,,,,33.4,,,,32.4,,28.6,,
COc1ccc(CNc2nc3ccccc3nc2-c2cccs2)cc1OC,,,,> 100,,> 100,,> 100,,> 100,,> 100,,,,,> 100,> 100,,
O=C(N/C(=C\c1ccc([N+](=O)[O-])cc1)c1nc2[nH]c(=S)[nH]c(=O)c2[nH]1)c1ccccc1,,,,> 100,,> 100,,> 100,,> 100,,> 100,,,,> 100,> 100,> 100,,
COc1cc(C)c(C(=O)/C=C/c2cc(OC)c(O)c(OC)c2)cc1O,,97.5,,62.7,,> 100,,30.5,,,,> 100,,,,39.6,> 100,44.6,,
